For one compound, GI50 results are on record in patent EP2924040A1, “2-Amino-1-(o-tolyl)pyrrolo[3,2-b]quinoxaline-3-carboxamide derivates” (Universität Zürich, priority 2014, dated 2015).

The test deals with A498. As to the kind of experiment: Cell culture and GI50 determination (resazurin). The class given is cell-based. The settings on record: Homo sapiens, A498, 48h incubation. The protocol: MDA-MB-231 (breast cancer) and KM12 (colon cancer) cells obtained from the UZH Cancer Institute, HOP-92 (lung cancer) cells purchased from the National Cancer Institute (NCl) and A498 (kidney cancer) cells obtained from Prof. Krek (Institute of Cell Biology, ETH Zurich) were cultured in Dulbecco's modified Eagle's medium (DMEM) supplemented with 10% (v/v) fetal bovine serum. K562 leukemia cells obtained from Dr. Silvio Hemmi (Institute of Molecular Life Sciences, UZH) were cultured using RPMI medium supplemented with 5% (v/v) fetal bovine serum. All the media was additionally supplemented with 100 units/mL of penicillin, 100µg/mL of streptomycin, 4.5 g/L glucose, 0.11g/L sodium pyrubate and 2mM glutamine and the cells were grown at 37 °C in 5% CO2 atmosphere with 80% relative humidity.
MDA-MB-231, HT-29, KM12, HOP-92 and A498 cells were plated at 10,000 cells per well (100 µL per well) in 96-well culture dishes and allowed to incubate for 24 h. The old media was removed, the cells were washed with PBS (phosphate-buffered saline) and fresh media was added. A 5 mmol/L solution of inhibitor (in 100% DMSO) was serially diluted in the culture media (12 different concentrations were used) and allowed to incubate for 72 h (MDA-MB-231) or 48h (A498). Control cells were treated with the same DMSO concentrations. After the incubation period the media was once more removed and the cells were washed with PBS to then be incubated with fresh media containing 86 nmol/L resazurin. After 3 hours, the fluorescence was quantified using a fluorescence microplate reader (Biotek, FLx800™) at the respective excitation and emission wavelength of 560 and 590 nm. Resazurin becomes fluorescent under mitochondrial reduction and its emission directly correlates with the metabolic stability of the cells. The measured fluorescence values were corrected from the control samples containing DMSO and GI50 values were determined by plotting the fraction of metabolically active cells against the log of the drug concentration. All measurements were performed at least in triplicate.
For orientation: Resazurin is reduced to fluorescent resorufin, in cell work by metabolically active cells.

Each structure is given as a SMILES string.

As usually defined, the GI50 is the concentration giving 50% growth inhibition. As to `COc1ccc(C)c(-n2c(N)c(C(N)=O)c3nc4ccccc4nc32)c1` [Compound 8, 2-Amino-1-(5-methoxy-2-methylphenyl)-1H-pyrrolo[2,3-b]quinoxaline-3-carboxamide, reference compound], the GI50 came out at 59.3 µM. This lies in the double-digit micromolar range.
